# Laboratory results from US20180066064A1, “BIOTHERAPEUTICS TARGETING GPR158 FOR CANCER” (University of Southern California, priority 2015, published 2018).
# Tests used:
# [1] = tested on: GPR158, AR and PSA expression in PHPECs; settings: DHT 10 nM
# Procedure: (§1) FIG. 2: Effects of an androgen on GPR158 expression. […] Total RNA (FIG. 2A-FIG. 2C) or cell lysates (FIG. 2E-FIG. 2G) were isolated and subjected to qRT-PCR and western blotting, respectively to estimate AR, PSA, GPR158 and beta-actin expression. […] Total RNA or the whole cell lysates were isolated and qRT-PCR and western blotting was performed, respectively to detect GPR158, AR, PSA and beta-actin levels (FIG. 2D) The mRNA level of the above indicated genes was considered 1 in cells grown in 10% FCS for calculating the relative fold difference of these genes in other experimental conditions. (FIG. 2A-FIG. 2H) The data represent three independent experiments.
# (§2) For androgen starvation studies, LNCaP, PC-3, and DU145 cells were grown in 10% CSS.
# (§3) Total RNA isolated from PCa cell lines with Aurum total RNA mini kit (Bio-Rad, Hercules, Calif.) was subjected to qRT-PCR analysis using iScript one-step RT-PCR kit with SYBR Green (Bio-Rad) on CFX96 Touch Real-Time PCR Detection System (Bio-Rad), according to the manufacturer's instructions. Relative quantification values of genes of interest were calculated as 2^−ΔΔCt by the comparative Ct method, where ΔΔCt=(Ct target mRNA of treated sample-Ct reference gene of treated sample)-(Ct target mRNA of control sample-Ct reference gene of control sample). The Inventors used beta-actin or GAPDH as a reference gene.
# (§4) The whole cell lysates were prepared using radioimmunoprecipitation assay (RIPA) lysis buffer (50 mM Tris, 150 mM NaCl, 0.1% SDS, 0.5% Sodium Deoxycholate, 1% NP-40) spiked with a cocktail of protease inhibitors for 20 min, followed by centrifugation at 10,000 g for 10 min. Supernatants were collected and proteins in the extracts were separated by SDS-PAGE without boiling the samples and transferred to PVDF membranes. Membranes were probed with primary antibody against protein of interest and were developed by chemiluminescence with reagents Luminol enhancer solution and peroxide solution (GE Healthcare UK limited, Buckinghamshire, UK) and images were captured with Fujifilm imaging system (LAS-4000; Fujifilm, Tokyo, Japan). Protein loading was monitored by stripping and reprobing of the membrane with beta-actin antibody.
# [2] = tested on: GPR158, AR and PSA expression in C4-2B cells; settings: DHT 10 nM
# Procedure: as §1, §2, §3, §4
# [3] = tested on: GPR158, AR and PSA expression in LNCaP cells; settings: DHT 10 nM
# Procedure: as §1, §2, §3, §4
# [4] = tested on: GPR158 driven by a doxycycline inducible promoter; AR, PSA; test: Dox induction in lenti-GPR158 LNCaP cells (western blotting); format: cell-based, human
# [5] = tested on: lenti-GPR158 LNCaP cells; test: Cell counting of lenti-GPR158 LNCaP cells after Dox treatment; format: cell-based, human; settings: Dox 100 ng/mL
Compound,PSA mRNA and protein levels ([1]; PHPEC),"AR protein stabilization ([1]; PHPEC, 12 hrs)","increase of GPR158 mRNA and protein levels ([1]; PHPECs, 24 hrs, 10% CSS)","effect on GPR158 mRNA and protein levels ([2]; C4-2B cells, 10% CSS)",AR protein stabilization ([2]; C4-2B),PSA mRNA and protein levels ([2]; C4-2B),"increase of GPR158 mRNA and protein levels ([3]; LNCaP cells, 24 hrs, 10% CSS)",PSA mRNA and protein levels ([3]; LNCaP),"AR protein stabilization ([3]; LNCaP, 12 hrs)","induction of GPR158 protein ([4]; Dox 100 ng/mL, at 4, 6 and 8 days (data not shown)) [fold]","increase in GPR158 protein levels ([4]; Dox 500 ng/mL, 3 days) [fold]","increase in cell numbers ([5]; 3 days, normalized for Dox alone on parental cells) [fold]","increase in cell numbers (growth curve) ([5]; at 4, 6 and 8 days vs untreated)"
"C[C@]12CCC(=O)C[C@@H]1CC[C@@H]1[C@@H]2CC[C@]2(C)[C@@H](O)CC[C@@H]12 [DHT, dihydrotestosterone]",increased significantly,AR protein stabilization,3-4 fold,no effect,not in C4-2B cells,increased significantly,3-4 fold,increased significantly,AR protein stabilization,–,–,–,–
"C[C@H]1c2cccc(O)c2C(=O)C2=C(O)[C@]3(O)C(=O)C(C(N)=O)=C(O)[C@@H](N(C)C)[C@@H]3[C@@H](O)[C@@H]21 [Dox, doxycycline]",–,–,–,–,–,–,–,–,–,3,~6,2.25,approximately 2 fold
